Results as given in patent US8466127B2, “Pegylated and fatty acid grafted chitosan oligosaccharide, synthesis method and application for drug delivery system” (Zhejiang University, priority 2008, dated 2013).
In brackets after ≈: the same amount, converted by molar mass. Read-outs that look alike come from different tables or passages of the source.

Experiments:
hepatoma cell HepG2 = assay: MTT assay, mitomycin C preparations; format: cell-based; conditions: HepG2, 48 h, mitomycin C solution or mitomycin C-loaded micelle of the named carrier
Protocol: Cell survival rate was determined by MTT assay. […] After incubation for 48 h, 60 μL of MTT solution was added to each well followed by incubation for 4 h. After that, the supernatant was discarded, and the cells were washed twice with PBS solution, prior to adding 400 μL DMSO to each well to terminate the reaction. After the culture plates were given a horizontal vibration for 10 min, the absorbance at the wavelength of 570 nm was measured in ELSA meter, and the cell survival rate was calculated according to the following formula: Cell survival rate(%)=A570(sample)/A570(control)×100% Wherein, A570 (sample) is the absorbance of cells adding with free drug or drug-loaded micelle, A570 (control) is the absorbance of control cells.

QGY tumor = assay: In vivo gene therapy, tumor inhibition; conditions: Nude mouse with QGY tumor, 2 mg/kg once, successive administration for 7 days
Protocol: PEDF was taken as the theoretical gene, and the drug-loaded graft micelle was prepared.

[1] = system: breast carcinoma cell (MCF-7); assay: MTT assay, adriamycin preparation, sensitive cells; format: cell-based; conditions: Homo sapiens, MCF7, 48 h
Protocol: (§1) Specifically, the breast carcinoma cell (MCF-7) and its drug-resistant cell (MCF-7-adr) used as the model cells were cultured in 96-well culture plate. 100 μL culture solution containing 5×10^3 MCF-7 or MCF-7-adr cells was added to each well and cultured for 24 h in 37° C., 5% CO2 incubator. […] A repeated well of each above group was set. The cells were cultured in normal DMEM medium for 48. After 20 μL of 5 mg/mL methylthiazoletetrazolium (MTT) solution was added to each well, the cells was re-cultured in 37° C., 5% CO2 incubator for 4 h, and then the supernatant was discarded. By adding 150 μL dimethyl sulfoxide to each well, a multi-functional microplate reader was used to measure the absorbance, and then the cell inhibition ratio was calculated according to the following formula: Cell inhibition ratio %=(absorbance of control group−absorbance of experimental group)/absorbance of control group×100%

[2] = system: uterine cervix cancer cell Hela; assay: MTT assay, adriamycin preparation; format: cell-based; conditions: Homo sapiens, 48 h
Protocol: Subsequently, the solution was transferred into a volumetric flask to set the total volume to 50 mL with distilled water, and then 1 mg/mL micelle solution was obtained. […] After stirred at room temperature for 3 h, the solution was dialyzed for 24 h with distilled water in dialysis bag with the molecular weight of 3,500. Then the dialysis concentrate solution was centrifuged at 5000 rpm for 5 min to remove the dialyzed hydrophobic anticancer drugs.
Subsequently, the evaluation of antitumor efficacy was conducted. Specifically, the uterine cervix cancer cell Hela used as the model was cultured in 96-well culture plate. 100 μL cell culture solution containing 5×10^3 Hela cells was added to each well and cultured for 24 h in 37° C., 5% CO2 incubator. […] A repeated well of each above group was set. The cells were cultured in normal DMEM medium for 48. After 20 μL of 5 mg/mL methylthiazoletetrazolium (MTT) solution was added to each well, the cells was re-cultured in 37° C., 5% CO2 incubator for 4 h, and then the supernatant was discarded. By adding 150 μL dimethyl sulfoxide to each well, a multi-functional microplate reader was used to measure the absorbance, and then the cell inhibition ratio was calculated according to the following formula: Cell inhibition ratio(%)=(absorbance of control group−absorbance of experimental group)/absorbance of control group×100%

[3] = system: drug-resistant cell (MCF-7-adr); assay: MTT assay, adriamycin preparation, drug-resistant cells; format: cell-based; conditions: Homo sapiens, NCI/ADR-RES, 48 h
Protocol: as §1

[4] = system: human lung cancer cell A549; assay: MTT assay, paclitaxel and hydroxycamptothecin preparations; format: cell-based; conditions: A549, 48 h
Protocol: Specifically, the human lung cancer cell A549 used as the model was cultured in 96-well culture plate. 100 μL cell culture solution containing 5×10^3 A549 cells was added to each well and cultured for 24 h in 37° C., 5% CO2 incubator. […] A repeated well of each above group was set. The cells were cultured in normal DMEM medium for 48. After 20 μL of 5 mg/mL methylthiazoletetrazolium (MTT) solution was added to each well, the cells was re-cultured in 37° C., 5% CO2 incubator for 4 h, and then the supernatant was discarded. By adding 150 μL dimethyl sulfoxide to each well, a multi-functional microplate reader was used to measure the absorbance, and then the cell inhibition ratio was calculated according to the following formula: Cell inhibition ratio %=(absorbance of control group−absorbance of experimental group)/absorbance of control group×100%

[5] = system: drug-resistant cell SKOV-3/ST30; assay: MTT assay, paclitaxel preparation, drug-resistant cells; format: cell-based; conditions: Homo sapiens, SK-OV-3, 48 h
Protocol: as §1, with “ovarian cancer” for “breast carcinoma”, “SKOV-3” for “(MCF-7)”, “SKOV-3/ST30” for “(MCF-7-adr)”, “SKOV-3” for “MCF-7”, “SKOV-3/ST30” for “MCF-7-adr”

[6] = system: ovarian cancer cell SKOV-3; assay: MTT assay, paclitaxel preparation, sensitive cells; format: cell-based; conditions: Homo sapiens, SK-OV-3, 48 h
Protocol: as §1, with “ovarian cancer” for “breast carcinoma”, “SKOV-3” for “(MCF-7)”, “SKOV-3/ST30” for “(MCF-7-adr)”, “SKOV-3” for “MCF-7”, “SKOV-3/ST30” for “MCF-7-adr”

Molecule CO[C@@]12[C@H](COC(N)=O)C3=C(C(=O)C(C)=C(N)C3=O)N1C[C@@H]1N[C@@H]12 [Control example, mitomycin C] has an IC50 (hepatoma cell HepG2) of 1.97 µg/mL (≈ 5.89 µM).
COc1cccc2c1C(=O)c1c(O)c3c(c(O)c1C2=O)C[C@@](O)(C(=O)CO)C[C@@H]3O[C@H]1C[C@H](N)[C@H](O)[C@H](C)O1 [adriamycin solution, adriamycin] was tested, and the “tumor inhibition ratio (positive control)” value (QGY tumor) was 78.85%, the IC50 [1] was 0.48 µg/mL (≈ 0.883 µM) and the IC50 [2] was 1.7 µg/mL (≈ 3.13 µM). For the same molecule, the IC50 [3] was 24.8 µg/mL (≈ 45.6 µM).
Molecule CC[C@@]1(O)C(=O)OCc2c1cc1n(c2=O)Cc2cc3cc(O)ccc3nc2-1 [hydeoxycamptothecin injection, hydroxycamptothecin] has an IC50 [4] of 8.6 µg/mL (≈ 23.6 µM).
CC(=O)O[C@H]1C(=O)[C@@]2(C)[C@H]([C@H](OC(=O)c3ccccc3)[C@]3(O)C[C@H](OC(=O)[C@H](O)[C@@H](NC(=O)c4ccccc4)c4ccccc4)C(C)=C1C3(C)C)[C@]1(OC(C)=O)CO[C@@H]1C[C@@H]2O [taxol solution, paclitaxel] was tested, and the IC50 ([4]; MTT, read-out: IC50) was 3.2 µg/mL (≈ 3.75 µM), the IC50 [5] was 10.2 ± 0.23 µg/mL (≈ 12 µM) and the IC50 [6] was 0.45 ± 0.05 µg/mL (≈ 0.527 µM).
